This is an account of results in patent US20240307362A1 (priority 2019, published 2024).

The subject of experiment [1] is Ba/F3-EGFR-WT. The experiment is described as follows: Ba/F3 cell survival assay, WT EGFR. The format is cell-based.
For experiment [2], the target named is mutEGFR (D770_N771insSVD) (Homo sapiens (Human), UniProt P00533, INS770SVD). The experiment can be described thus: biochemical. To be noted: mutEGFR (D770_N771 insSVD) at 2 mM ATP IC50, 2 mM ATP.
The test system of experiment [3] is Ba/F3-EGFR-insSVD. The experiment is described as follows: Ba/F3 cell survival assay, EGFR-insSVD. The format is cell-based. In short, it runs like this:
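Ba/F3 cells stably expressing WT EGFR or EGFR-insSVD via retrovirus, grown without IL-3 on 10 ng/mL EGF, plated at 4000 cells/well. Compound exposure 48 h at 37 °C; viability read by CellTiter-Glo luminescence.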

The target in experiment [4] is human Bub1 (Homo sapiens (Human), UniProt O43683). The experiment can be described thus: Bub1 high ATP kinase assay (TR-FRET). The experiment is classed as biochemical. The source says:
Bub1-inhibitory activity of compounds of the present invention at a high ATP concentration was quantified employing the Bub1 TR-FRET high ATP kinase assay as described in the following paragraphs.
N-terminally His6-tagged recombinant catalytic domain of human Bub1 (amino acids 704-1085), expressed in insect cells (Hi5) and purified by Ni-NTA affinity chromatography and subsequent size exclusion chromatography, was used as enzyme.

Setting [5] is: Mus musculus, BaF3, 48 h, read-out: BA/F3 (wild type) IC50, cell viability, Cell Titer-Glo, 48 h, with 10 ng/mL EGF, without IL-3.
Setting [6] is: Mus musculus, BaF3, 48 h, read-out: BA/F3 (insSVD) IC50, cell viability, Cell Titer-Glo, 48 h, with 10 ng/mL EGF, without IL-3.
[7] abbreviates: read-out: Bub1 high ATP (2 mM) IC50, 2 mM ATP.
[8] abbreviates: read-out: BA/F3 (wild type) IC50, cell viability, Cell Titer-Glo, 48 h, with 10 ng/mL EGF, without IL-3.
[9] abbreviates: read-out: BA/F3 (insSVD) IC50, cell viability, Cell Titer-Glo, 48 h, with 10 ng/mL EGF, without IL-3.
Where [10] appears, read: Bub1 high ATP (2 mM) IC50, 2 mM ATP.

Several values for one entry are separate records, joined by “and”; a condition that tells them apart may be missing. Equal values may be shown once. Read-outs that look alike come from different tables or passages of the source.

Sequence of human Bub1 (O43683 704-1085): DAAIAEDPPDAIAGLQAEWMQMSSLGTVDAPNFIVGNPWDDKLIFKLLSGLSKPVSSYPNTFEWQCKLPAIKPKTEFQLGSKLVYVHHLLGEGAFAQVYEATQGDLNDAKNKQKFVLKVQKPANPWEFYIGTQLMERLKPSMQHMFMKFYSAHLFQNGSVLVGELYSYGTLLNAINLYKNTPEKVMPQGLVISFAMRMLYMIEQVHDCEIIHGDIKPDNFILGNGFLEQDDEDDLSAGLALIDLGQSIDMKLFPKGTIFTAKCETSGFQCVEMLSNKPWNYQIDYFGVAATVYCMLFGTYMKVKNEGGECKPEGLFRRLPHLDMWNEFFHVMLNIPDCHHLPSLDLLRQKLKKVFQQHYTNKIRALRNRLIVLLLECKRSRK
Sequence of mutEGFR (D770_N771insSVD) (P00533 other isoform, or with tags, fused parts or gaps ins SVD behind 770): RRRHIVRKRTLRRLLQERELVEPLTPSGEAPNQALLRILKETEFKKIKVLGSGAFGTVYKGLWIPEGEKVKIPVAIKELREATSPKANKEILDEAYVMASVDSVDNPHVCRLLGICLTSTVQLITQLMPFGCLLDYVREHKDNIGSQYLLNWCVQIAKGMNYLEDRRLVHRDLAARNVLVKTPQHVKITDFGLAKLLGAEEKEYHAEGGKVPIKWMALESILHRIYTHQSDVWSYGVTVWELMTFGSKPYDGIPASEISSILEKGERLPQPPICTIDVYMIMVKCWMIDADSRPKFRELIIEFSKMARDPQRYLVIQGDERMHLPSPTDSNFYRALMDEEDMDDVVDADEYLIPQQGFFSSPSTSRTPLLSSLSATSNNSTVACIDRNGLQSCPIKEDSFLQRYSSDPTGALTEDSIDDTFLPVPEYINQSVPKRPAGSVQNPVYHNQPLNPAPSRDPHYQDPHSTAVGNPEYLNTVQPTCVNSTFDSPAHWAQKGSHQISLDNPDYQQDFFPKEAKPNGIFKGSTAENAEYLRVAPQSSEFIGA

Turning to `COc1c(Cl)cccc1Nc1c(-c2ccncc2OC[C@@H]2CCN2C)[nH]c2c1C(=O)NCC2` [Example 27, 3-(3-chloro-2-methoxyanilino)-2-(3-{[(2S)-1-methylazetidin-2-yl]methoxy}pyridin-4-yl)-1,5,6,7-tetrahydro-4H-pyrrolo[3,2-c]pyridin-4-one], the IC50 in experiment [1] (setting [5]) was found to be 937 nM; in experiment [2], 0.445 nM; in experiment [3] (setting [6]) it was 36.5 nM.
The corresponding values for `COc1c(F)cccc1Nc1c(-c2ccncc2OC[C@H]2CCN2C)[nH]c2c1C(=O)NCC2` [Example 79, 3-(3-fluoro-2-methoxyanilino)-2-(3-{[(2R)-1-methylazetidin-2-yl]methoxy}pyridin-4-yl)-1,5,6,7-tetrahydro-4H-pyrrolo[3,2-c]pyridin-4-one] are 712 nM, 0.718 nM and 113 nM.
Consider `COc1c(Cl)cccc1Nc1c(-c2ccncc2OCC2OCC2(C)C)[nH]c2c1C(=O)NCC2` (single isomer, unassigned; (-)) [Example 51, (−)-3-(3-chloro-2-methoxyanilino)-2-{3-[(3,3-dimethyloxetan-2-yl)methoxy]pyridin-4-yl}-1,5,6,7-tetrahydro-4H-pyrrolo[3,2-c]pyridin-4-one], for which the IC50 is 17100 nM and 17300 nM and > 20000 nM in experiment [4] (setting [7]); 1050 nM in experiment [1] (setting [8]); 153 nM in experiment [3] (setting [9]).
For the compound `COc1c(Cl)cccc1Nc1c(-c2ccncc2OCCC2CCO2)[nH]c2c1C(=O)NCC2` (racemic) [Example 24, 3-(3-chloro-2-methoxyanilino)-2-{3-[2-(oxetan-2-yl)ethoxy]pyridin-4-yl}-1,5,6,7-tetrahydro-4H-pyrrolo[3,2-c]pyridin-4-one], the values for the IC50 in experiment [4] (setting [7]), in experiment [1] (setting [5]) and in experiment [3] (setting [6]) were 2700 nM, 636 nM and 17.5 nM, respectively.
For `COc1c(F)cccc1Nc1c(-c2ccncc2OCCC2CCO2)[nH]c2c1C(=O)NCC2` (single isomer, unassigned) [Example 45, 3-(3-fluoro-2-methoxyanilino)-2-{3-[2-(oxetan-2-yl)ethoxy]pyridin-4-yl}-1,5,6,7-tetrahydro-4H-pyrrolo[3,2-c]pyridin-4-one], the IC50 in experiment [4] (setting [10]) was determined as 12700 nM; in experiment [1] (setting [8]), 746 nM; in experiment [3] (setting [9]), 46.4 nM.
The like results for `COc1c(Cl)cc(F)cc1Nc1c(-c2ccncc2OCC2CCO2)[nH]c2c1C(=O)NCC2` (single isomer, unassigned) [Example 66, 3-(3-chloro-5-fluoro-2-methoxyanilino)-2-(3-{[oxetan-2-yl]methoxy}pyridin-4-yl)-1,5,6,7-tetrahydro-4H-pyrrolo[3,2-c]pyridin-4-one] were, in that order, above 20000 nM, 1500 nM and 140 nM.
Take `COc1c(F)cccc1Nc1c(-c2ccncc2OCC2(C)CCO2)[nH]c2c1C(=O)NCC2` (single isomer, unassigned; (+)) [Example 21, (+)-3-(3-fluoro-2-methoxyanilino)-2-{3-[(2-methyloxetan-2-yl)methoxy]pyridin-4-yl}-1,5,6,7-tetrahydro-4H-pyrrolo[3,2-c]pyridin-4-one]: the IC50 in experiment [4] (setting [7]) was above 20000 nM; in experiment [1] (setting [8]) it was 571 nM; in experiment [3] (setting [9]), 40.4 nM.
`COc1c(F)cccc1Nc1c(-c2ccncc2OCC2(F)COC2)[nH]c2c1C(=O)NCC2` [Example 61, 3-(3-fluoro-2-methoxyanilino)-2-{3-[(3-fluorooxetan-3-yl)methoxy]pyridin-4-yl}-1,5,6,7-tetrahydro-4H-pyrrolo[3,2-c]pyridin-4-one]: the IC50 in experiment [4] (setting [7]) is above 20000 nM; in experiment [1] (setting [5]), 3570 nM; in experiment [3] (setting [6]), 445 nM.
With `COc1c(F)cccc1Nc1c(-c2ccncc2OCCC2CCO2)[nH]c2c1C(=O)NCC2` (single isomer, unassigned) [Example 44, 3-(3-fluoro-2-methoxyanilino)-2-{3-[2-(oxetan-2-yl)ethoxy]pyridin-4-yl}-1,5,6,7-tetrahydro-4H-pyrrolo[3,2-c]pyridin-4-one], the IC50 in experiment [4] (setting [10]) is above 20000 nM; in experiment [1] (setting [5]), 903 nM; in experiment [3] (setting [6]), 34.1 nM.
For `CCc1c(Cl)cccc1Nc1c(-c2ccncc2OCC2CCO2)[nH]c2c1C(=O)NCC2` (stereo not shown) [Example 77, 3-(3-chloro-2-ethylanilino)-2-(3-{[oxetan-2-yl]methoxy}pyridin-4-yl)-1,5,6,7-tetrahydro-4H-pyrrolo[3,2-c]pyridin-4-one], the values for the IC50 in experiment [4] (setting [7]), in experiment [1] (setting [5]) and in experiment [3] (setting [6]) were 1760 nM, 777 nM and 46.7 nM, respectively.
The corresponding values for `O=C1NCCc2[nH]c(-c3ccncc3OCC3COC3)c(Nc3cccc(Cl)c3OC(F)F)c21` [Example 17, 3-[3-chloro-2-(difluoromethoxy)anilino]-2-{3-[(oxetan-3-yl)methoxy]pyridin-4-yl}-1,5,6,7-tetrahydro-4H-pyrrolo[3,2-c]pyridin-4-one] are 7520 nM, 1740 nM and 177 nM.
The like results for `COc1c(F)cccc1Nc1c(-c2ccncc2OCCC2CCO2)[nH]c2c1C(=O)NCC2` (racemic) [Example 43, 3-(3-fluoro-2-methoxyanilino)-2-{3-[2-(oxetan-2-yl)ethoxy]pyridin-4-yl}-1,5,6,7-tetrahydro-4H-pyrrolo[3,2-c]pyridin-4-one] were, in that order, 3500 nM, 262 nM and 11.5 nM.
Regarding `COc1c(Cl)cccc1Nc1c(-c2ccncc2OCC2OCC2(C)C)[nH]c2c1C(=O)NCC2` (racemic) [Example 49, 3-(3-chloro-2-methoxyanilino)-2-{3-[(3,3-dimethyloxetan-2-yl)methoxy]pyridin-4-yl}-1,5,6,7-tetrahydro-4H-pyrrolo[3,2-c]pyridin-4-one], the IC50 is above 20000 nM in experiment [4] (setting [7]), 426 nM in experiment [1] (setting [5]) and 12.5 nM in experiment [3] (setting [6]).
The like results for `COc1c(Cl)cccc1Nc1c(-c2ccncc2OCCC2CCO2)[nH]c2c1C(=O)NCC2` (single isomer, unassigned; (+)) [Example 25, (+)-3-(3-chloro-2-methoxyanilino)-2-{3-[2-(oxetan-2-yl)ethoxy]pyridin-4-yl}-1,5,6,7-tetrahydro-4H-pyrrolo[3,2-c]pyridin-4-one] were, in that order, 1080 nM, 121 nM and 4.21 nM.
The corresponding values for `CCC1(COc2cnccc2-c2[nH]c3c(c2Nc2cccc(Cl)c2Cl)C(=O)NCC3)COC1` [Example 87, 3-(2,3-dichloroanilino)-2-{3-[(3-ethyloxetan-3-yl)methoxy]pyridin-4-yl}-1,5,6,7-tetrahydro-4H-pyrrolo[3,2-c]pyridin-4-one] are above 5700 nM, 813 nM and 119 nM.
The like results for `O=C1NCCc2[nH]c(-c3ccncc3OCCC3CCO3)c(Nc3cccc(Cl)c3Cl)c21` (single isomer, unassigned) [Example 63, 3-(2,3-dichloroanilino)-2-(3-{2-[oxetan-2-yl]ethoxy}pyridin-4-yl)-1,5,6,7-tetrahydro-4H-pyrrolo[3,2-c]pyridin-4-one] were, in that order, 5510 nM, 567 nM and 31.4 nM.
`Cc1cccc(Nc2c(-c3ccncc3OCC3CCO3)[nH]c3c2C(=O)NCC3)c1Cl` (single isomer, unassigned; (+)) [Example 38, (+)-3-(2-chloro-3-methylanilino)-2-{3-[(oxetan-2-yl)methoxy]pyridin-4-yl}-1,5,6,7-tetrahydro-4H-pyrrolo[3,2-c]pyridin-4-one]: the IC50 is above 20000 nM in experiment [4] (setting [7]), 628 nM in experiment [1] (setting [8]) and 48.8 nM in experiment [3] (setting [9]).
As for `Cc1cccc(Nc2c(-c3ccncc3OCCC3CCO3)[nH]c3c2C(=O)NCC3)c1Cl` (stereo not shown) [Example 62, 3-(2-chloro-3-methylanilino)-2-{3-[2-(oxetan-2-yl)ethoxy]pyridin-4-yl}-1,5,6,7-tetrahydro-4H-pyrrolo[3,2-c]pyridin-4-one], the IC50 in experiment [4] (setting [10]) is above 5710 nM; in experiment [4] (setting [7]) it was 5250 nM; in experiment [1] (setting [5]), 3700 nM; in experiment [3] (setting [6]) it was 42.1 nM.
For the compound `Cc1c(Cl)cccc1Nc1c(-c2ccncc2OC[C@@H]2CCO2)[nH]c2c1C(=O)NCC2` [Example 8, 3-(3-chloro-2-methylanilino)-2-(3-{[(2S)-oxetan-2-yl]methoxy}pyridin-4-yl)-1,5,6,7-tetrahydro-4H-pyrrolo[3,2-c]pyridin-4-one], the IC50 in experiment [4] (setting [7]) worked out at 7610 nM; in experiment [1] (setting [5]), 230 nM; in experiment [3] (setting [6]), 12.5 nM.
On to `COc1c(Cl)cccc1Nc1c(-c2ccncc2OCC2(C)CCN2CC(F)(F)F)[nH]c2c1C(=O)NCC2` (stereo not shown) [Example 32, 3-(3-chloro-2-methoxyanilino)-2-(3-{[2-methyl-1-(2,2,2-trifluoroethyl)azetidin-2-yl]methoxy}pyridin-4-yl)-1,5,6,7-tetrahydro-4H-pyrrolo[3,2-c]pyridin-4-one], for which the results for the IC50 in experiment [4] (setting [7]), in experiment [1] (setting [5]) and in experiment [3] (setting [6]) were above 20000 nM, 298 nM and 12.2 nM, respectively.
